Where two headings read alike, the source gives them in different places.
Key:
[1] = target: T1, human β3-adrenergic receptor (Homo sapiens, UniProt P13945); assay: Test Case 1-B: human β3-adrenergic receptor agonist activity (cAMP-Screen, 96-well); format: cell-based
T1 construct: A full-length human β3 gene is obtained from a human genomic library (made by Clontech) using this as the probe; expressed in transfected cells; host or cells: CHO (Chinese hamster ovary) cells, pcDNA3
Protocol: Measurement of Human β3-Adrenergic Receptor Agonist Activity
The human β3-adrenergic receptor agonist activity is measured using CHO (Chinese hamster ovary) cells transfected by a human β3 gene inserted in pcDNA3 (Invitrogen). […] A full-length human β3 gene is obtained from a human genomic library (made by Clontech) using this as the probe. These cells are cultured in Ham's F-12 medium containing 10% fetal calf serum and 400 μg/mL genectin (Invitrogen). These cells are sown in 96-well plates to make 2×10^4 cells/well. After culturing for approximately 20 hours, they are allowed to stand for 15 minutes in 80 μL of serum-free Ham's F-12 medium. After first dissolving the test compound by DMSO, it is serially diluted by Ham's F-12 containing 100 mmol/L HEPES and 1 mmol/L isobutylmethylxanthine, and 20 μL is added to the cells. After culturing for 30 minutes, the medium is removed, and 0.1 mL of the assay/lysis buffer contained in the cAMP-Screen kit (made by Applied Bioscience) is added and incubated for 30 minutes at 37° C. The cAMP in this cell lysate is assayed by the above cAMP-Screen kit.

[2] = target: T2, human α1A-adrenergic receptor (Homo sapiens, UniProt P35348); assay: Test Case 4-A: human α1A-adrenergic receptor agonist activity (HEK293, Ca flux, Fura-2); format: cell-based; parameters: expressed in transfected cells; host or cells: HEK293 cells, pcDNA3.1
T2 sequence (P35348 1-466): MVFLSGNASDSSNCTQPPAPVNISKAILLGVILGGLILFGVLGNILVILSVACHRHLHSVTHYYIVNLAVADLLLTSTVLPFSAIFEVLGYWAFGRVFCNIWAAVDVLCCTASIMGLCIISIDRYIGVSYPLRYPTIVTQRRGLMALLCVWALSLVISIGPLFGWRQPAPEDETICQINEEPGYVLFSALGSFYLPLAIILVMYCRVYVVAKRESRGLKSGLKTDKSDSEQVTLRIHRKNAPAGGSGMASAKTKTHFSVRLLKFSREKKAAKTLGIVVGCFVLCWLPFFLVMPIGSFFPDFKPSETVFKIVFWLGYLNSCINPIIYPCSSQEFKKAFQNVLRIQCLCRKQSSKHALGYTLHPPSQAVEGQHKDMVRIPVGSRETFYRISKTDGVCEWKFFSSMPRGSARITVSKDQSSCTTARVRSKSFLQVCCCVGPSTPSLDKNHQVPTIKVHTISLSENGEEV
Protocol: Measurement of Human α1A-Adrenergic Receptor Agonist Activity
The human α1A-adrenergic receptor agonist activity is measured using HEK293 cells transfected by a human α1A gene inserted in pcDNA3.1 (Invitrogen). […] After loading for 30 minutes in a CO2 incubator, the excess Fura-2AM is removed by washing twice with assay buffer. After preparing the centrifuged cells to make 5×10^6 cells/mL by assay buffer, 80 μL/well is dispensed into 96-well UV plates (made by Corning) to make cell plates. Sample plates with the test compound diluted 10-fold by assay buffer from 10^−5 to 10^−12 M and cell plates are set in an FDSS4000 (made by Hamamatsu Photonics). After preincubating for 180 seconds, measurement of fluorescence intensity (excitation wavelength 340 nm, 380 nm, measurement wavelength 500 nm) is begun at 2-second intervals. After approximately 30 seconds of measurement, 20 μL of test sample from a sample plate is added to the cell plate, and measurement is continued for another 270 seconds. The Ca flux caused by the test compound is calculated taking the difference in the maximum value of the fluorescence intensity ratio at 340 nm and 380 nm after adding the test compound and the fluorescence intensity ratio before adding the test compound as the peak height.

[3] = Test Case 1-B; maximum response of isoproterenol = 100%
[4] = 0.5 h; read-out: β3 receptor I.A.
[5] = HEK293; read-out: α1A receptor I.A.
[6] = Test Case 4-A; HEK293 cells, Ca flux; Table 4
[7] = Test Case 4-A; maximum response of norepinephrine = 100%; Table 4

T1 sequence (P13945 whole entry): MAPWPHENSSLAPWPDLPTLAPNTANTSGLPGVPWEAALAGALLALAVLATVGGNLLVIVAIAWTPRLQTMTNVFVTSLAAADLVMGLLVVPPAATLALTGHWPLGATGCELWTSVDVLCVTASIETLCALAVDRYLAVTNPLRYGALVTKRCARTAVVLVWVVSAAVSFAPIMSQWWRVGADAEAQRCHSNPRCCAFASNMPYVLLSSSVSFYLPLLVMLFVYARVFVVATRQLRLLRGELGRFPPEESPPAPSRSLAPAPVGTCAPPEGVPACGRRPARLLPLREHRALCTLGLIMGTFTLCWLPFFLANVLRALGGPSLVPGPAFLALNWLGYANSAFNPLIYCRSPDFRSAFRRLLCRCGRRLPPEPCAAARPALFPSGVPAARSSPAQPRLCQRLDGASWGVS

Compound	Emax [1, 4] [%]	EC50 ([1]; Test Case 1-B; CHO cells, cAMP) [nM]	Emax [2, 5] [%]	other results
Cc1n[nH]c2cc(OCCNC[C@H](O)c3cccc(NS(=O)(=O)c4cc(F)c(F)c(F)c4)c3)ccc12 [ex77, (R)-3,4,5-trifluoro-N-(3-(1-hydroxy-2-(2-(3-methylindazol-6-yloxy)ethylamino)ethyl)phenyl) benzenesulfonamide]				β3 receptor I.A. [1, 3]: 59%
Cc1n[nH]c2cc(OCCNC[C@H](O)c3cccc(NS(=O)(=O)c4ccccc4Cl)c3)ccc12 [ex51, (R)-2-chloro-N-(3-(1-hydroxy-2-(2-(3-methylindazol-6-yloxy)ethylamino)ethyl)phenyl)ben-zenesulfonamide]	64	146	0	
Cn1cc(S(=O)(=O)Nc2cccc([C@@H](O)CNCCOc3ccc4c(C5CC5)n[nH]c4c3)c2)cn1 [ex225, (R)-N-(3-(2-(2-(3-cyclopropylindazol-6-yloxy)ethylamino)-1-hydroxyethyl)phenyl)-1-methyl-pyrazole-4-sul-fonamide]	91	5.7	41	EC50 [2, 6]: 981 nM
Cc1n[nH]c2cc(OCCNC[C@H](O)c3cccc(NS(=O)(=O)c4ccccn4)c3)ccc12 [ex64, (R)-N-(3-(1-hydroxy-2-(2-(3-methylindazol-6-yloxy)ethylamino)ethyl)phenyl)pyridine-2-sulfonamide]	65	208		
Cc1n[nH]c2cc(OCCNC[C@H](O)c3cccc(NS(=O)(=O)c4ccc(Cl)cc4)c3)ccc12 [ex52, (R)-4-chloro-N-(3-(1-hydroxy-2-(2-(3-methylindazol-6-yloxy)ethylamino)ethyl)phenyl) benzenesulfonamide]	62	248	0	
Nc1cccc(S(=O)(=O)Nc2cc([C@@H](O)CNCCOc3ccc4c(C(F)(F)F)n[nH]c4c3)ccc2Cl)c1 [ex183, (R)-3-amino-N-(2-chloro-5-(1-hydroxy-2-(2-(3-(trifluoro-methyl)-indazol-6-yloxy)ethylamino)ethyl)phenyl)ben-zenesulfonamide]				β3 receptor I.A. [1, 3]: 72%
CCc1n[nH]c2cc(OCCNC[C@H](O)c3cccc(NS(=O)(=O)CC(F)(F)F)c3)ccc12 [ex125, (R)-N-(3-(2-(2-(3-ethylindazol-6-yloxy)ethylamino)-1-hydroxyethyl)phenyl)-2,2,2-trifluoro ? sulfonamide]	34	14	15	
CCc1n[nH]c2cc(OCCNC[C@H](O)c3cccc(NS(=O)(=O)c4cccc(OC)c4)c3)ccc12 [ex120, (R)-N-(3-(2-(2-(3-ethylindazol-6-yloxy)ethylamino)-1-hydroxyethyl)phenyl)-3-methoxybenzene-sulfonamide]	32	131	0	
O=S(=O)(Nc1cccc([C@@H](O)CNCCOc2ccc3c(OC(F)F)n[nH]c3c2)c1)C1CCC1 [ex115, (R)-N-(3-(2-(2-(3-(difluoromethoxy)-indazol-6-yloxy)ethylamino)-1-hydroxyethyl)phenyl)-cyclobutanesul-fonamide]	86	15	35	EC50 [2, 6]: 1100 nM
O=S(=O)(Nc1cccc([C@@H](O)CNCCOc2ccc3c(C4CC4)n[nH]c3c2)c1)C1CC1 [ex227, (R)-N-(3-(2-(2-(3-cyclopropylindazol-6-yloxy)ethylamino)-1-hydroxyethyl)phenyl)-cyclopropane-sulfonamide]		31		β3 receptor I.A. [1, 3]: 65%; α1A receptor I.A. [2, 7]: 1%
CCc1n[nH]c2cc(OCCNC[C@H](O)c3cccc(NS(=O)(=O)c4ccsc4)c3)ccc12 [ex123, (R)-N-(3-(2-(2-(3-ethylindazol-6-yloxy)ethylamino)-1-hydroxyethyl)phenyl) thiophene-3-sulfonamide]	50	0.67	0	
COc1cccc(S(=O)(=O)Nc2cccc([C@@H](O)CNCCOc3ccc4c(OC)n[nH]c4c3)c2)c1 [ex14, (R)-N-(3-(1-hydroxy-2-(2-(3-methoxyindazol-6-yloxy)ethylamino)ethyl)phenyl)-3-methoxy-b ? sulfonamide]			0	
Cc1n[nH]c2cc(OCCNC[C@H](O)c3cccc(NS(=O)(=O)CC(F)(F)F)c3)ccc12 [ex48, (R)-2,2,2-trifluoro-N-(3-(1-hydroxy-2-(2-(3-methylindazol-6-yloxy)ethylamino)ethyl)phenyl) ? sulfonamide]	48	27	29	
O=S(=O)(Nc1cccc([C@@H](O)CNCCOc2ccc3c(C(F)(F)F)n[nH]c3c2)c1)c1ccccc1F [ex189, (R)-2-fluoro-N-(3-(1-hydroxy-2-(2-(3-(trifluoromethyl)-indazol-6-yloxy)ethylamino)ethyl)phenyl)benzene-sulfonamide]	91	85	1	
O=S(=O)(Nc1cccc([C@@H](O)CNCCOc2ccc3c(CO)n[nH]c3c2)c1)C1CCC1 [ex243, (R)—N-(3-(1-hydroxy-2-(2-(3-(hydroxymethyl)indazole-6-yloxy)ethylamino)ethyl)phenyl)cyclobutanesulfonamide]	72	72	89	EC50 [2, 6]: 44 nM
Cc1n[nH]c2cc(OCCNC[C@H](O)c3cccc(NS(=O)(=O)C4CCCC4)c3)ccc12 [ex237, (R)—N-(3-(1-hydroxy-2-(2-(3-methylindazol-6-yloxy)ethylamino)ethyl)phenyl)cyclopentanesulfonamide]		293		Emax ([1]; 0.5 h, read-out: β3 receptor I.A.): 58%; Emax ([2]; HEK293, read-out: α1A receptor I.A.): 0%
O=S(=O)(Nc1cccc([C@@H](O)CNCCOc2ccc3c(C(F)(F)F)n[nH]c3c2)c1)C1CCC1 [ex210, (R)-N-(3-(1-hydroxy-2-(2-(3-(trifluoro-methyl)-indazol-6-yloxy)ethylamino)ethyl)phenyl)cyclo-clobutanesulfonamide]	86	17	54	EC50 [2, 6]: 1700 nM
(R)-N-(3-(1-hydroxy-2- (2-(3-methoxyindazol- 6-yloxy)-ethylamino) ethyl)phenyl)- ? benzenesulfonamide [ex40]				β3 receptor I.A. [1, 3]: 50%
Cc1n[nH]c2cc(OCCNC[C@H](O)c3cccc(NS(=O)(=O)c4cccc(C(F)(F)F)c4)c3)ccc12 [ex65, (R)-N-(3-(1-hydroxy-2-(2-(3-methylindazol-6-yloxy)ethylamino)ethyl)phenyl)-3-(trifluoromethyl)-benzenesulfonamide]	65	579		
Cc1n[nH]c2cc(OCCNC[C@H](O)c3cccc(NS(=O)(=O)c4c(F)cccc4F)c3)ccc12 [ex69, (R)-2,6-difluoro-N-(3-(1-hydroxy-2-(2-(3-methylindazol-6-yloxy)ethylamino)ethyl)phenyl) benzenesulfonamide]	72	594		
Cc1n[nH]c2cc(OCCNC[C@H](O)c3cccc(NS(=O)(=O)c4cccc(OC(F)F)c4)c3)ccc12 [ex66, (R)-3-(difluoro-methoxy)-N-(3-(1-hydroxy-2-(2-(3-methylindazol-6-yloxy)ethylamino)ethyl)phenyl) benzenesulfonamide]	88	291		
COc1cccc(S(=O)(=O)Nc2cccc([C@@H](O)CNCCOc3ccc4c(OC)n[nH]c4c3)c2)c1 [ex15, (R)-N-(3-(1-hydroxy-2-(2-(3-methoxyindazol-6-yloxy)ethylamino)ethyl)phenyl)-3-methoxy-b ? sulfonamide]				α1A receptor I.A. [2, 7]: 0%
